From patent US9976141B2, “Compositions and methods for inhibiting gene expression of Hif2alpha” (Arrowhead Madison Inc., priority 2015, dated 2018) come the findings set out here.

Data set [1] has as its system human EPAS1 (Hif2α) cDNA in psiCHECK2 (Renilla luciferase/EPAS1 fusion mRNA) in Hep3B cells. Nature of the data set: Efficacy screen of Hif2α RNAi triggers in vitro, dual-luciferase reporter assay (1 nM and 0.1 nM). Format: cell-based. The conditions noted are these: Hep3B cells co-transfected with EPAS1-psiCHECK2, Renilla luciferase normalized to firefly luciferase. Put shortly:
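Hep3B cells (10,000/well) co-transfected with chemically modified siRNA triggers at 1 nM and 0.1 nM plus 25 ng EPAS1-psiCHECK2 plasmid via LipoFectamine 2000. Knockdown measured as Renilla luciferase from the EPAS1 fusion mRNA, normalized to constitutive firefly luciferase by dual-luciferase assay.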

Data set [2] concerns human (tumor) Hif2α (EPAS1) mRNA. Description: Hif2α knockdown in orthotopic RCC tumor bearing mice, single injection of RNAi trigger-delivery polymer conjugate, RT-qPCR (Table 7). Format: in vivo. The conditions noted are these: RNAi trigger 80 μg, polymer 126 400 μg; single tail vein injection; relative to isotonic glucose. As for the experimental part: A pCR3.1 expression vector expressing the reporter gene secreted alkaline phosphatase (SEAP) under the CMV promoter was prepared by directional cloning of the SEAP coding sequence PCR amplified from Clontech's pSEAP2-basic vector. Convenient restriction sites were added onto primers used to amplify the SEAP coding sequence for cloning into the pCR3.1 vector (Invitrogen). The resultant construct pCR3-SEAP was used to create a SEAP-expressing A498 ccRCC cell line. Briefly, pCR3-SEAP plasmid was transfected into A498 ccRCC cells by electroporation following manufacturer's recommendation. Stable transfectants were selected by G418 resistance. Selected A498-SEAP clones were evaluated for SEAP expression and integration stability.
Female athymic nude mice were anesthetized with ˜3% isoflourane and placed in the right lateral decubitus position. A small, 0.5-1 cm, longitudinally abdominal incision in the left flank was made. Using a moist cotton swab, the left kidney was lifted out of the peritoneum and gently stabilized. Just before injection, a 1.0 ml syringe was filled with the cell/Matrigel mixture and a 27 gauge needle catheter was attached to the syringe tip. The filled syringe was then attached to a syringe pump (Harvard Apparatus, model PHD2000) and primed to remove air. The tip of a 27-gauge needle catheter attached to a syringe was inserted just below the renal capsule near the caudal pole and the tip of the needle was then carefully advanced cranially along the capsule 3-4 mm. A 10 μl aliquot of 2:1 (vol:vol) cell/matrigel mixture containing about 300,000 cells was slowly injected into the kidney parenchyma using a syringe pump. The needle was left in the kidney for 15-20 seconds to ensure the injection was complete. The needle was then removed from the kidney and a cotton swab was placed over the injection site for 30 seconds to prevent leakage of the cells or bleeding. The kidney was then gently placed back into the abdomen and the abdominal wall was closed. Serum was collected every 7-14 days after implantation to monitor tumor growth using a commercial SEAP assay kit. For most studies, tumor mice were used 5-6 weeks after implantation, when tumor measurements were typically around 4-8 mm.
RGD targeted HiF2α-RNAi trigger delivery conjugates. Delivery polymers were modified using RGD-PEG-HyNic, RGD-PEG-ACit-PNP, or RDG-PEG-FCitFP-TFP and PEG-dipeptide modifying agents. The indicated amount of polymer 126 or 100A polymer was modified with 8×PEG12-ACit-PABC-PNP/0.5× aldehyde-PEG24-FCit-PABC-PNP (with RGD mimic #1-PEG-HyNic using protocol #1) and the indicated amount of the indicated Hif2α RNAi trigger. Polymer 064 was modified according to protocol 7. Kidney RCC tumor-bearing mice were generated as described and treated with a single tail vein injection of isotonic glucose (G1) or the indicated Hif2α RNAi trigger-delivery polymer conjugate. Mice were euthanized at the indicated time after injection and total RNA was prepared from kidney tumor using Trizol reagent following manufacturer's recommendation. Relative HiF2α mRNA levels were determined by RT-qPCR as described below and compared to mice treated with delivery buffer (isotonic glucose) only.
In preparation for quantitative PCR, total RNA was isolated from tissue samples homogenized in TriReagent (Molecular Research Center, Cincinnati, Ohio) following the manufacturer's protocol. Approximately 500 ng RNA was reverse-transcribed using the High Capacity cDNA Reverse Transcription Kit (Life Technologies). For human (tumor) Hif2α (EPAS1) expression, pre-manufactured TaqMan gene expression assays for human Hif2α (Catalog #4331182) and CycA (PPIA) Catalog #: 4326316E) were used in biplex reactions in triplicate using TaqMan Gene Expression Master Mix (Life Technologies) or VeriQuest Probe Master Mix (Affymetrix). […]

Strand notation (5' to 3'): a small letter for the sugar, then the base; units joined by * are phosphorothioate-linked, units joined directly phosphodiester-linked; [ ] holds rarer units or linkages, { } end groups; capitals alone tell only the bases. d = 2'-deoxy (DNA); m = 2'-O-methyl; f = 2'-fluoro

Regarding “2417 (sense fAmAfGmUfAmUfUmCfUmGfAmUfCmCfUmAfCmCfAdT; antisense dTfGmGfUmAfGmGfAmUfCmAfGmAfAmUfAmCfUmUdT*dT; siRNA) [compound 2417]”, the “Relative Rluc-Hif2α” value in data set [1] (0.1 nM RNAi trigger) was 0.295 ± 0.057; in data set [1] (1 nM RNAi trigger) it was 0.253 ± 0.037.
Regarding “AD01020 (antisense TGUAAAACAAUUGUGUACUTT; sense AGUACACAAUUGUUUUACAT; Hif2alpha RNAi agent antisense strand; modified_base 2,4,8,10,12,14,16,18 /mod_base = “2′-deoxy-2′-fluoro corresponding nucleoside”; modified_base 3,5,7,9,11,13,15,17,19 /mod_base = “2′-O-methyl corresponding nucleoside”; modified_base 6 /mod_base = “2′-3′ seco corresponding nucleotide”; modified_base 21 /mod_base = “5′-phosphorothioate corresponding nucleotide”; Hif2alpha RNAi agent sense strand; modified_base 1,3,5,7,9,11,13,15,17,19 /mod_base = “2′-deoxy-2′-fluoro corresponding nucleoside”; modified_base 2,4,6,8,10,12,14,16,18 /mod_base = “2′-O-methyl corresponding nucleoside”; modified_b)”, the “Relative Expression day 4 (Hif2α mRNA in kidney tumor)” value in data set [2] amounted to 0.94.
The same measure, in the same setting: for “AD01021 (antisense TGUAAAACAAUUGUGUACUTT; sense AGUACACAAUUGUUUUACAT; Hif2alpha RNAi agent antisense strand; modified_base 2,4,6,8,10,12,14,16,18 /mod_base = “2′-deoxy-2′-fluoro corresponding nucleoside”; modified_base 3,5,9,11,13,15,17,19 /mod_base = “2′-O-methyl corresponding nucleoside”; modified_base 7 /mod_base = “2′-3′ seco corresponding nucleotide”; modified_base 21 /mod_base = “5′-phosphorothioate corresponding nucleotide”; Hif2alpha RNAi agent sense strand; modified_base 1,3,5,7,9,11,13,15,17,19 /mod_base = “2′-deoxy-2′-fluoro corresponding nucleoside”; modified_base 2,4,6,8,10,12,14,16,18 /mod_base = “2′-O-methyl corresponding nucleoside”; modified_b)” the value was 0.90; for “AD01022 (antisense TGUAAAACAAUUGUGUACUTT; sense AGUACACAAUUGUUUUACAT; Hif2alpha RNAi agent antisense strand; modified_base 2,4,6,8,10,12,14,16,18 /mod_base = “2′-deoxy-2′-fluoro corresponding nucleoside”; modified_base 3,5,7,9,11,13,15,17,19 /mod_base = “2′-O-methyl corresponding nucleoside”; modified_base 21 /mod_base = “5′-phosphorothioate corresponding nucleotide”; Hif2alpha RNAi agent sense strand; modified_base 1,3,5,7,9,11,13,15,17,19 /mod_base = “2′-deoxy-2′-fluoro corresponding nucleoside”; modified_base 2,4,6,8,10,12,14,16,18 /mod_base = “2′-O-methyl corresponding nucleoside”; modified_base 20 /mod_base = “3′-3′-linked nucleotide”; modified_base 1 /mo)”, 0.53; for “AD01023 (antisense TCUAGCAACAAAACCUUAATT; sense UUAAGGUUUUGUUGCUAGAT; Hif2alpha RNAi agent antisense strand; modified_base 2,4,8,10,12,14,16,18 /mod_base = “2′-deoxy-2′-fluoro corresponding nucleoside”; modified_base 3,5,7,9,11,13,15,17,19 /mod_base = “2′-O-methyl corresponding nucleoside”; modified_base 6 /mod_base = “2′-3′ seco corresponding nucleotide”; modified_base 21 /mod_base = “5′-phosphorothioate corresponding nucleotide”; Hif2alpha RNAi agent sense strand; modified_base 1,3,5,7,9,11,13,15,17,19 /mod_base = “2′-deoxy-2′-fluoro corresponding nucleoside”; modified_base 2,4,6,8,10,12,14,16,18 /mod_base = “2′-O-methyl corresponding nucleoside”; modified_b)”, 0.93.
The same measure, in the same setting: in the case of “AD01024 (antisense TCUAGCAACAAAACCUUAATT; sense UUAAGGUUUUGUUGCUAGAT; Hif2alpha RNAi agent antisense strand; modified_base 2,4,6,8,10,12,14,16,18 /mod_base = “2′-deoxy-2′-fluoro corresponding nucleoside”; modified_base 3,5,9,11,13,15,17,19 /mod_base = “2′-O-methyl corresponding nucleoside”; modified_base 7 /mod_base = “2′-3′ seco corresponding nucleotide”; modified_base 21 /mod_base = “5′-phosphorothioate corresponding nucleotide”; Hif2alpha RNAi agent sense strand; modified_base 1,3,5,7,9,11,13,15,17,19 /mod_base = “2′-deoxy-2′-fluoro corresponding nucleoside”; modified_base 2,4,6,8,10,12,14,16,18 /mod_base = “2′-O-methyl corresponding nucleoside”; modified_b)” it was 0.51; in that of “AD01025 (antisense TCUAGCAACAAAACCUUAATT; sense UUAAGGUUUUGUUGCUAGAT; Hif2alpha RNAi agent antisense strand; modified_base 2,4,6,8,10,12,14,16,18 /mod_base = “2′-deoxy-2′-fluoro corresponding nucleoside”; modified_base 3,5,7,9,11,13,15,17,19 /mod_base = “2′-O-methyl corresponding nucleoside”; modified_base 21 /mod_base = “5′-phosphorothioate corresponding nucleotide”; Hif2alpha RNAi agent sense strand; modified_base 1,3,5,7,9,11,13,15,17,19 /mod_base = “2′-deoxy-2′-fluoro corresponding nucleoside”; modified_base 2,4,6,8,10,12,14,16,18 /mod_base = “2′-O-methyl corresponding nucleoside”; modified_base 20 /mod_base = “3′-3′-linked nucleotide”; modified_base 1 /mo)”, 0.34.
